Data published in PMC3356383, “Efficacious Intermittent Dosing of a Novel JAK2 Inhibitor in Mouse Models of Polycythemia Vera” (PLoS ONE, 2012).
Marks after values point to notes of the source that are not given here.

Tests used:
JAK1 (JH1) = target: T1, JAK1 (JH1) (Homo sapiens, UniProt P23458); assay: JAK1 enzyme assay, HTRF detection; type: biochemical
T1 construct: JAK1 (JH1)
Method: (§1) JAK1, JAK2, JAK3, and TYK2 kinase activity assays were performed as described previously using HTRF detection technology and the peptide substrate amino hexanoyl biotin-EQEDEPEGDYFEWLE-NH2. Each reaction was incubated between 60 and 80 min at room temperature. Final conditions were as follows: JAK1, 400 pM enzyme, Hepes pH 7.5, 10 mM MgCl2, 0.01% Brij-35, 1 mM EGTA, 0.1 mg/ml BSA), 2 mM DTT, 2 µM peptide substrate, 25 µM MgATP, 5% DMSO and the desired concentration of subject compound; JAK2, 25 pM enzyme (JH1, JH1–JH2^wt, JH1–JH2^V617F domains), 2 µM peptide substrate, 15 µM MgATP, 5 mM MgCl2, 100 mM NaCl, 2 mM DTT, 0.1 mg/ml BSA, 50 mM Tris (pH 7.4), 5% DMSO and the desired concentration of subject compound; JAK3, 250 pM enzyme, 50 mM Hepes pH 7.5, 10 mM MgCl2, 0.01% Brij-35, 1 mM EGTA, 0.1 mg/ml BSA), 2 mM DTT, 2.0 µM peptide substrate, 25 µM MgATP, 5% DMSO, and the desired concentration of subject compound; TYK2, 125 pM enzyme, 50 mM Hepes pH 7.5, 10 mM MgCl2, 0.01% Brij-35, 1 mM EGTA, 0.1 mg/ml BSA, 2 mM DTT, 2.0 µM peptide substrate, 15 µM MgATP, 5% DMSO and the desired concentration of subject compound.

JAK3 (JH1) = target: T2, JAK3 (JH1) (Homo sapiens, UniProt P52333); assay: JAK3 enzyme assay, HTRF detection; type: biochemical
T2 construct: JAK3 (JH1)
Method: as §1

220 recombinant kinases = assay: Kinase profiling (Millipore), whole panel; type: biochemical; details: 198 of 220 tested kinases; based on JAK2 (JH1-JH2) IC50
Method: Kinase profiling was conducted by Millipore (Billerica, MA).

[1] = tested on: pSTAT5 in BaF3 (JAK2 V617F) cells; assay: Cell pSTAT5 AlphaScreen SureFire assay; type: cell-based; details: Mus musculus, 1 hour
Method: (§2) Measurement of pSTAT5 in cells was performed essentially as described previously using an AlphaScreen™ SureFire™ (Perkin Elmer) assay. BaF3 (JAK2 WT), BaF3 (JAK2 V617F), and CTLL-2 cells were exposed to compound for 60 min prior to lysis and subsequent detection of pSTAT5 via AlphaScreen technology. Prior to compound treatment, BaF3 (JAK2 WT) and CTLL-2 cells were cytokine starved overnight, with EPO or IL-2 added 15 minutes prior to lysis, respectively.

[2] = tested on: pSTAT5 in BaF3 (JAK2 WT) cells; assay: Cell pSTAT5 AlphaScreen SureFire assay; type: cell-based; details: Mus musculus, 1 hour, EPO-stimulated
Method: as §2

[3] = tested on: pSTAT5 in CTLL-2 cells (JAK1 and JAK3 dependent); assay: Cell pSTAT5 AlphaScreen SureFire assay; type: cell-based
Method: as §2

[4] = tested on: bone marrow cell populations; assay: Cell populations in bone marrow of normal mice; type: in vivo; details: 54 mpk
Method: Cells were stained in PBS, 0.5% BSA with antibodies for 15 min on ice. Stained cells were acquired on a 4-laser LSR-II (BD Biosciences) and data analyzed using FlowJo software (Treestar). Dead cells were labeled with the blue fluorescent LIVE/DEAD reactive dye (Invitrogen) and excluded from the analysis.
Monoclonal antibodies (anti-mouse): CD3, CD4, CD5, CD8, CD11b, CD19, CD21/35, CD23, CD25, CD43, CD44, CD49b, CD69, CD71, CD93, CD117, B220, GR-1, IgD, NK1.1, NKG2A/C/E, NKG2D, Ter119 were purchased from BD Biosciences; CD4, CD8, CD49b, CD62L, TCRβ, TCRγδ from eBioscience; GR-1 from Invitrogen; CD43 from Miltenyi Biotec. Goat anti-mouse IgM-FITC, (μ chain specific) from Jackson Immuno Research.
JAK2 and its family members JAK1 and JAK3 are known to signal downstream of cytokines that play essential roles in the development of lymphoid cell populations. To examine more thoroughly the effects of JAK2 inhibition on lymphoid cells, we analyzed wild-type (C57BL/6) mice treated with 54 mpk MRLB-11055 for 3 days, 6 days or up to 5 cycles of 3 days (“on”) followed by a 4 day holiday (“off”).
Supplementary file pone.0037207.s006.doc: Table S4 Effect of MRLB-11055 on Cell Populations in Bone Marrow of Normal Mice. Cell counts measured by Advia. Cycles refer to 3 days of treatment followed by a 4 day holiday. *p<0.05 in Student T test when comparing vehicle 5 cycle with treatment 5 cycle and vehicle 2 cycle with treatment 2 cycle, resp. (DOC) Click here for additional data file.

[5] = tested on: lung epithelial cancer cell lines, including H2122 cells; assay: Cell proliferation of several lung epithelial cancer cell lines; type: cell-based; details: on average
Method: Cell proliferation was measured by ViaLight (Lonza Group Ltd) assay as follows. Cells (1000–2000) were seeded into 384-well plates and incubated 16 hours @ 37°C, 5% CO2. […] Cells were lysed and ATP detected as per the manufacturer protocol.

[6] = 2 cycles (3 days treatment, 4 day holiday)
[7] = 5 cycles (3 days treatment, 4 day holiday)

T2 sequence (P52333 822-1111 limits assumed, species assumed): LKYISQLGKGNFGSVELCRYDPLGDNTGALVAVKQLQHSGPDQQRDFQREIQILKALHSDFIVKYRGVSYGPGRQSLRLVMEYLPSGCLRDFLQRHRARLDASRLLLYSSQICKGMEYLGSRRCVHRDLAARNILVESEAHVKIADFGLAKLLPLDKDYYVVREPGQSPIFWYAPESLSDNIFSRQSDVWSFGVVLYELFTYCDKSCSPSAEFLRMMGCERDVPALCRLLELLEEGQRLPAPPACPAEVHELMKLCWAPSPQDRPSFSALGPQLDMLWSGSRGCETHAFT
T1 sequence (P23458 875-1153 limits assumed, species assumed): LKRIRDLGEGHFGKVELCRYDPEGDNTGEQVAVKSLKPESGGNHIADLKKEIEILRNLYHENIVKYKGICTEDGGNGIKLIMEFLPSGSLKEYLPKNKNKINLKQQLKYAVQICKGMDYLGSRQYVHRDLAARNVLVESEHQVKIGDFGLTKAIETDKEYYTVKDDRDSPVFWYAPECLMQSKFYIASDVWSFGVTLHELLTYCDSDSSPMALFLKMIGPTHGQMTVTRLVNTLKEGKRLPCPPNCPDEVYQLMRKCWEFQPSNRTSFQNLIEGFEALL

NC(=O)c1cnc(N[C@H](C2CC2)C(F)(F)F)c2c1[nH]c1cc(-c3cnc(N)nc3)ccc12 [MRLB-11055]
IC50 (JAK1 (JH1); HTRF, mean, n = 3, read-out: IC50, cell-free JAK1 (JH1)): 0.0015 µM
Selectivity for JAK2 over JAK1 (JAK1 (JH1); cell-free assays): 20 fold
IC50 (JAK3 (JH1); HTRF, mean, n = 3, read-out: IC50, cell-free JAK3 (JH1)): 0.3 µM
Selectivity for JAK2 over JAK3 (JAK3 (JH1); cell-free assays): > 3000 fold
Fold selectivity over JAK2 for 198/220 kinases (220 recombinant kinases): >25-fold over JAK2
IC50 [1]: 0.011 µM
IC50 [2]: 0.023 µM
Times less potent on IL-2 stimulated CTLL-2 pSTAT5 than on JAK2V617F-mediated pSTAT5 in BaF3 cells [3]: 6 times
IC50 ([3]; Mus musculus, CTLL-2, 1 hour, IL2-stimulated, JAK1 and JAK3 dependent): 0.066 µM
B-Cells (CD19+B220+) Immature AA4.1+ IgM+ [4, 6]: 0.70 ± 0.04* x 10^6
B-Cells (CD19+B220+) Mature AA4.1- IgM+ [4, 6]: 0.54 ± 0.12 x 10^6
B-Cells (CD19+B220+) Pro/pre AA4.1+ IgM- [4, 6]: 2.78 ± 0.92 x 10^6
B-Cells (CD19+B220+) Total [4, 6]: 4.05 ± 0.94* x 10^6
Erythroid Progenitors [4, 6]: 8.3 ± 0.9 x 10^6
Mature Erythrocytes [4, 6]: 13.5 ± 0.7 x 10^6
Myeloid GR-1+ CD11b+ [4, 6]: 8.33 ± 0.85* x 10^6
Nucleated Cells [4, 6]: 25.0 ± 4.0 x 10^6
B-Cells (CD19+B220+) Immature AA4.1+ IgM+ [4, 7]: 0.15 ± 0.05* x 10^6
B-Cells (CD19+B220+) Mature AA4.1- IgM+ [4, 7]: 0.38 ± 0.17* x 10^6
B-Cells (CD19+B220+) Pro/pre AA4.1+ IgM- [4, 7]: 1.22 ± 0.74 x 10^6
B-Cells (CD19+B220+) Total [4, 7]: 1.76 ± 0.87* x 10^6
Erythroid Progenitors [4, 7]: 5.9 ± 1.9 x 10^6
Mature Erythrocytes [4, 7]: 10.3 ± 3.2 x 10^6
Myeloid GR-1+ CD11b+ [4, 7]: 7.83 ± 3.46 x 10^6
Nucleated Cells [4, 7]: 19.6 ± 7.2 x 10^6
B-Cells (CD19+B220+) Immature AA4.1+ IgM+ ([4]; 3 days): 0.22 ± 0.09* x 10^6
B-Cells (CD19+B220+) Mature AA4.1- IgM+ ([4]; 3 days): 0.32 ± 0.17* x 10^6
B-Cells (CD19+B220+) Pro/pre AA4.1+ IgM- ([4]; 3 days): 0.24 ± 0.10* x 10^6
B-Cells (CD19+B220+) Total ([4]; 3 days): 0.78 ± 0.35* x 10^6
Erythroid Progenitors ([4]; 3 days): 0.5 ± 0.3* x 10^6
Mature Erythrocytes ([4]; 3 days): 25.0 ± 5.5* x 10^6
Myeloid GR-1+ CD11b+ ([4]; 3 days): 2.07 ± 0.55* x 10^6
Nucleated Cells ([4]; 3 days): 4.7 ± 1.6* x 10^6
B-Cells (CD19+B220+) Immature AA4.1+ IgM+ ([4]; 6 days): 0.11 ± 0.03* x 10^6
B-Cells (CD19+B220+) Mature AA4.1- IgM+ ([4]; 6 days): 0.59 ± 0.52 x 10^6
B-Cells (CD19+B220+) Pro/pre AA4.1+ IgM- ([4]; 6 days): 0.08 ± 0.03* x 10^6
B-Cells (CD19+B220+) Total ([4]; 6 days): 0.79 ± 0.54* x 10^6
Erythroid Progenitors ([4]; 6 days): 1.4 ± 0.8* x 10^6
Mature Erythrocytes ([4]; 6 days): 18.7 ± 2.5* x 10^6
Myeloid GR-1+ CD11b+ ([4]; 6 days): 1.90 ± 0.68* x 10^6
Nucleated Cells ([4]; 6 days): 5.4 ± 2.2* x 10^6
Proliferation IC50 of lung epithelial cancer cell lines, fold higher than for JAK2-dependent cell lines [5]: 50–70 fold
